According to patent publication US7803808B2, “Production of polyketides and other natural products” (Wyeth LLC, priority 2004, dated 2010):

How the values were obtained:
cell proliferation = conditions: compared to rapamycin; Khaw et al., 1998; cited from earlier work
[1] = tested on: mixed lymphocyte reaction; conditions: Nishida et al., 1995; cited from earlier work
[2] = tested on: SF268 (SF-268, CNS) tumour cell line; experiment: Monolayer proliferation assay (modified propidium iodide), SF268; format: cell-based, human; conditions: 4 days incubation, mean of duplicate experiments
Experimental: (§1) In vitro evaluation of compounds for anticancer activity in a panel of 12 human tumour cell lines in a monolayer proliferation assay were carried out at the Oncotest Testing Facility, Institute for Experimental Oncology, Oncotest GmbH, Freiburg.
(§2) The Oncotest cell lines were established from human tumor xenografts as described by Roth et al. 1999. The origin of the donor xenografts was described by Fiebig et al. 1992. Other cell lines were either obtained from the NCI (H460, SF-268, OVCAR-3, DU145, MDA-MB-231, MDA-MB-468) or purchased from DSMZ, Braunschweig, Germany (LNCAP).
(§3) All cell lines, unless otherwise specified, are grown at 37° C. in a humidified atmosphere (95% air, 5% CO2) in a ‘ready-mix’ medium containing RPMI 1640 medium, 10% fetal calf serum, and 0.1 mg/mL gentamicin (PAA, Cölbe, Germany).
(§4) A modified propidium iodide assay was used to assess the effects of the test compound(s) on the growth of twelve human tumor cell lines (Dengler et al., 1995).
(§5) Briefly, cells were harvested from exponential phase cultures by trypsinization, counted and plated in 96 well flat-bottomed microtitre plates at a cell density dependent on the cell line (5-10.000 viable cells/well). After 24 h recovery to allow the cells to resume exponential growth, 0.01 mL of culture medium (6 control wells per plate) or culture medium containing 39-desmethoxyrapamycin were added to the wells. Each concentration was plated in triplicate. 39-Desmethoxyrapamycin was applied in two concentrations (0.001 mM and 0.01 mM). Following 4 days of continuous incubation, cell culture medium with or without 39-desmethoxyrapamycin was replaced by 0.2 mL of an aqueous propidium iodide (PI) solution (7 mg/L). To measure the proportion of living cells, cells were permeabilized by freezing the plates. After thawing the plates, fluorescence was measured using the Cytofluor 4000 microplate reader (excitation 530 nm, emission 620 nm), giving a direct relationship to the total number of viable cells.
(§6) Growth inhibition was expressed as treated/control×100 (% T/C) and are provided for a selection of cell lines. […]

[3] = tested on: 251L (GXF 251L, gastric) tumour cell line; experiment: Monolayer proliferation assay (modified propidium iodide), 251L; format: cell-based, human; conditions: 4 days incubation, mean of duplicate experiments
Experimental: as §1, §2, §3, §4
as §5, with “39-Desmethoxyrapamycin was applied in two concentrations (0.001 mM and 0.01 mM).” left out
as §6

[4] = tested on: H460 (NCl-H460, lung) tumour cell line; experiment: Monolayer proliferation assay (modified propidium iodide), H460; format: cell-based, human; conditions: 4 days incubation, mean of duplicate experiments
Experimental: as §1, §2, §3, §4, §5
Growth inhibition was expressed as treated/control×100 (% T/C) and are provided for a selection of cell lines. For active compounds, the average IC50 & IC70 values across the entire cell line panel examined were estimated by plotting compound concentration versus cell viability and are also provided.
In vitro evaluation of 17-desmethyl-39-desmethoxyrapamycin for anticancer activity in a panel of 12 human tumour cell lines in a monolayer proliferation assay was carried out as described above using a modified propidium iodide assay.

[5] = tested on: MCF7 (MCF-7, breast) tumour cell line; experiment: Monolayer proliferation assay (modified propidium iodide), MCF7; format: cell-based, human; conditions: 4 days incubation, mean of duplicate experiments
Experimental: as §1, §2, §3, §4, §5, §6

[6] = tested on: 394NL (MEXF 394NL, melanoma) tumour cell line; experiment: Monolayer proliferation assay (modified propidium iodide), 394NL; format: cell-based, human; conditions: 4 days incubation, mean of duplicate experiments
Experimental: as §1, §2, §3, §4
as §5, with “39-Desmethoxyrapamycin was applied in two concentrations (0.001 mM and 0.01 mM).” left out
as §6

[7] = tested on: OVCAR3 (OVCAR-3, ovarian) tumour cell line; experiment: Monolayer proliferation assay (modified propidium iodide), OVCAR3; format: cell-based, human; conditions: 4 days incubation, mean of duplicate experiments
Experimental: as §1, §2, §3, §4, §5, §6

[8] = tested on: DU145 (prostate, PTEN positive) tumour cell line; experiment: Monolayer proliferation assay (modified propidium iodide), DU145; format: cell-based, human; conditions: 4 days incubation, mean of duplicate experiments
Experimental: as §1, §2, §3, §4, §5, §6

[9] = tested on: LNCAP (prostate, PTEN negative) tumour cell line; experiment: Monolayer proliferation assay (modified propidium iodide), LNCAP; format: cell-based, human; conditions: 4 days incubation, mean of duplicate experiments
Experimental: as §1, §2, §3, §4
as §5, with “39-Desmethoxyrapamycin was applied in two concentrations (0.001 mM and 0.01 mM).” left out
as §6

[10] = tested on: 1138L (UXF 1138L, uterus) tumour cell line; experiment: Monolayer proliferation assay (modified propidium iodide), 1138L; format: cell-based, human; conditions: 4 days incubation, mean of duplicate experiments
Experimental: as §1, §2, §3, §4, §5, §6

[11] = tested on: panel of human tumour cell lines; experiment: Monolayer proliferation assay, mean across the cell line panel; format: cell-based; conditions: average across the cell lines tested; estimated from concentration versus cell viability
Experimental: as §1, §2, §3, §4, §5, §6

fungi = conditions: compared to rapamycin, cited from earlier work; for antifungal activities: Wong et al., 1998
FKBP12 PPlase = FKBP12 PPlase (Homo sapiens, UniProt P62942); conditions: compared to rapamycin; Box et al., 1995; cited from earlier work
murine splenic T cells = conditions: compared to rapamycin; Box et al., 1995; cited from earlier work
murine splenic B cells = conditions: compared to rapamycin; Box et al., 1995; cited from earlier work

Sequence of FKBP12 PPlase (P62942 whole entry): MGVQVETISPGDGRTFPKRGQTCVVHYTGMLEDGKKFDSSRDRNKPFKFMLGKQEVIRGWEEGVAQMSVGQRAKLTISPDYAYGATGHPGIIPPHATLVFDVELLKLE

For `CO[C@H]1C[C@@H]2CC[C@@H](C)[C@@](O)(O2)C(=O)C(=O)N2CC(O)C[C@H]2C(=O)O[C@H]([C@H](C)C[C@@H]2CC[C@@H](O)[C@H](OC)C2)CC(=O)[C@H](C)/C=C(\C)[C@@H](O)CC(=O)[C@H](C)C[C@H](C)/C=C/C=C/C=C/1C` (stereo partly shown) [4-hydroxyprolyl-26-desmethoxy-rapamycin], the “inhibitory activity in proliferation assays” value (cell proliferation) is given as “significantly less than that of rapamycin”.
For `CO[C@H]1C[C@@H]2CC[C@@H](C)[C@](O)(CC(=O)N3CCCC[C@H]3C(=O)O[C@H]([C@H](C)C[C@@H]3CC[C@@H](O)[C@H](OC)C3)CC(=O)[C@H](C)/C=C(\C)[C@@H](O)[C@@H](OC)C(=O)[C@H](C)C[C@H](C)/C=C/C=C/C=C/1C)O2` [9-deoxorapamycin], the “mixed lymphocyte reaction (MLR) inhibitory activity” value [1] is given as “more significant decrease in activity”.
With `CO[C@@H]1/C=C/C=C/C=C/[C@@H](C)C[C@@H](C)C(=O)[C@H](OC)[C@H](O)/C(C)=C/[C@@H](C)C(=O)C[C@@H]([C@H](C)C[C@H]2CC[C@H](O)CC2)OC(=O)[C@@H]2CCCCN2C(=O)C(=O)[C@]2(O)O[C@@H](CC[C@H]2C)C1` [17-desmethyl-39-desmethoxyrapamycin] the “Test/Control (%) at drug concentration” value ([2]; 1 μM) was 57%, the “Test/Control (%) at drug concentration” value ([2]; 10 μM) was 37% and the “Test/Control (%) at drug concentration” value ([2]; 100 μM) was 4%. For the same compound, the “Test/Control (%) at drug concentration” value ([3]; 1 μM) was 85%, the “Test/Control (%) at drug concentration” value ([3]; 10 μM) was 89% and the “Test/Control (%) at drug concentration” value ([3]; 100 μM) was 16%. For the same compound, the “Test/Control (%) at drug concentration” value ([4]; 1 μM) was 82%, the “Test/Control (%) at drug concentration” value ([4]; 10 μM) was 76% and the “Test/Control (%) at drug concentration” value ([4]; 100 μM) was 3%. The “Test/Control (%) at drug concentration” value ([5]; 1 μM) was 59%, the “Test/Control (%) at drug concentration” value ([5]; 10 μM) was 52% and the “Test/Control (%) at drug concentration” value ([5]; 100 μM) was 8%. The “Test/Control (%) at drug concentration” value ([6]; 1 μM) was 66%, the “Test/Control (%) at drug concentration” value ([6]; 10 μM) was 61% and the “Test/Control (%) at drug concentration” value ([6]; 100 μM) was 4%. For the same compound, the “Test/Control (%) at drug concentration” value ([7]; 1 μM) was 84%, the “Test/Control (%) at drug concentration” value ([7]; 10 μM) was 61% and the “Test/Control (%) at drug concentration” value ([7]; 100 μM) was 8%. For the same compound, the “Test/Control (%) at drug concentration” value ([8]; 1 μM) was 69%, the “Test/Control (%) at drug concentration” value ([8]; 10 μM) was 66% and the “Test/Control (%) at drug concentration” value ([8]; 100 μM) was 5%. The “Test/Control (%) at drug concentration” value ([9]; 1 μM) was 59%, the “Test/Control (%) at drug concentration” value ([9]; 10 μM) was 43% and the “Test/Control (%) at drug concentration” value ([9]; 100 μM) was 15%. For the same compound, the “Test/Control (%) at drug concentration” value ([10]; 1 μM) was 59%, the “Test/Control (%) at drug concentration” value ([10]; 10 μM) was 46% and the “Test/Control (%) at drug concentration” value ([10]; 100 μM) was 5%. For the same compound, the IC50 [11] was 13.3 µM and the “Mean IC70” value [11] was 38.2 µM.
For `CO[C@H]1C[C@@H]2CC[C@@H](C)[C@@](O)(O2)C(=O)C(=O)N2CCCC[C@H]2C(=O)O[C@H]([C@H](C)C[C@@H]2CC[C@@H](O)[C@H](OC)C2)CC(=O)[C@H](C)/C=C(\C)[C@@H](O)[C@@H](O)C(=O)[C@H](C)C[C@H](C)/C=C/C=C/C=C/1C` [27-O-desmethylrapamycin], the antifungal activity (fungi; Box et al., 1995) is listed as “lower than that of rapamycin”, the antifungal activities (fungi) is listed as “lower than that of rapamycin” and the “inhibition of FKBP12 PPlase activity” value (FKBP12 PPlase) is listed as “seemed to be increased”. The “inhibition of ConA-stimulated proliferation of murine splenic T cells” value (murine splenic T cells) was “decreased when compared to rapamycin” and the “inhibition of LPS-stimulated proliferation of murine splenic B cells” value (murine splenic B cells) was “decreased when compared to rapamycin”.
In the case of `CO[C@H]1C[C@@H]2CC[C@@H](C)[C@@](O)(O2)C(=O)C(=O)N2CCCC[C@H]2C(=O)O[C@H]([C@H](C)C[C@@H]2CC[C@@H](O)[C@H](OC)C2)CC(=O)[C@H](C)/C=C(\C)[C@@H](O)CC(=O)[C@H](C)C[C@H](C)/C=C/C=C/C=C/1C` [27-desmethoxyrapamycin], the antifungal activities (fungi) is listed as “lower than that of rapamycin”.
For `CO[C@H]1C[C@@H]2CC[C@@H](C)[C@@](O)(O2)C(=O)C(=O)N2CCCC[C@H]2C(=O)O[C@H]([C@H](C)C[C@@H]2CC[C@@H](O)[C@H](OC)C2)CC(=O)[C@H](C)/C=C(\C)[C@@H](O)[C@@H](OC)C(=O)[C@H](C)C[C@H](C)/C=C/C=C/C=C/1C` [Rapamycin, reference compound], the “Test/Control (%) at drug concentration” value ([4]; 10 μM) was 66% and the “Mean IC70” value [11] was 9.1 µM.
For `COC1CC2CCC(C)C(O)(O2)C(=O)C(=O)N2CCCC2C(=O)OC(C(C)CC2CCC(O)C(OC)C2)CC(=O)C(C)/C=C(\C)C(O)C(OC)C(=O)C(C)CC(C)/C=C/C=C/C=C/1C` (stereo not shown) [prolylrapamycin], the antifungal activities (fungi) is given as “lower than that of rapamycin”.
